Assay results: US6552014B2, “Methods of inhibiting platelet activation with selective serotonin reuptake inhibitors” (HeartDrug Research, L.L.C., priority 1999, dated 2003)

Columns and labels:
Assay in all cases: Flow cytometry of platelet antigen expression, platelet rich plasma
Format in all cases: cell-based, human
Details in all cases: PRP
P-selectin = system: P-selectin
From the text: For ex vivo assessment of the SSRIs effect on a PAM, a level of a PAM can be assessed by flow cytometry by first obtaining a sample that comprises platelets and then contacting the sample with a platelet activation agonist, such as phorbol myristate acetate (PMA), ADP (adenosine diphosphate), thrombin, collagen, and/or TRAP (thrombin receptor activating peptide), under conditions suitable for activation of platelets in the sample. The sample is in contact with the agonist preferably for a period of time effective to maximally activate the platelets. […] Then the formation of the complex in the sample is determined (detected or measured). […] The blood-ACD mixture was centrifuged at 1000 r.p.m. for 10 minutes at room temperature. […] The PRP was then centrifuged at 3000 r.p.m. for 10 minutes. […] All cells were then divided into ten plastic capped tubes. Nine portions of washed platelets were incubated with 5 μfluorescein isothiocyanate (FITC)-conjugated antibodies in the dark at +4 °C for 30 minutes, and one part remained unstained and served as a negative control. […] The instrument was calibrated daily with fluorescence beads (CaliBRITE; Becton Dickinson) and measured FITC-conjugated fluorescence intensity. All parameters were obtained using four decade logarithmic amplification. The data was collected and stored in list mode, and then analyzed using CELLQuest® (version 1.2.2) software. Procedures are described in detail in (Gurbel, P. […] Serebruany, V. […] The levels of various PAMs were assess from samples of human volunteers.

CD9 = system: CD9
From the text: (§1) For ex vivo assessment of the SSRIs effect on a PAM, a level of a PAM can be assessed by flow cytometry by first obtaining a sample that comprises platelets and then contacting the sample with a platelet activation agonist, such as phorbol myristate acetate (PMA), ADP (adenosine diphosphate), thrombin, collagen, and/or TRAP (thrombin receptor activating peptide), under conditions suitable for activation of platelets in the sample. The sample is in contact with the agonist preferably for a period of time effective to maximally activate the platelets. […] NDMS at 31.1, 64.1 or 143 ng./ml). Then one contacts or stains the samples with a composition that comprises an anti-PAM antibody e.g., having a fluorescent label, preferably in an amount in excess of that required to bind the PAM expressed on the platelets, under conditions suitable for the formation of labeled complexes between the anti-PAM antibody and activated platelets. Then the formation of the complex in the sample is determined (detected or measured). […] The blood-ACD mixture was centrifuged at 1000 r.p.m. for 10 minutes at room temperature. […] The PRP was then centrifuged at 3000 r.p.m. for 10 minutes. […] All cells were then divided into ten plastic capped tubes. Nine portions of washed platelets were incubated with 5 μfluorescein isothiocyanate (FITC)-conjugated antibodies in the dark at +4 °C for 30 minutes, and one part remained unstained and served as a negative control. Surface antigen expression was measured with monoclonal murine anti-human antibodies: CD9 (p24); CD41a (IIb/IIIa, aIIIbb3); CD42b (Ib); CD61(IIIa) (DAKO Corporation, Carpinteria Calif.); CD49b (VLA-2, or a2b1); CD62p (P-selectin); CD31 (PECAM-1); […] The instrument was calibrated daily with fluorescence beads (CaliBRITE; Becton Dickinson) and measured FITC-conjugated fluorescence intensity. All parameters were obtained using four decade logarithmic amplification. The data was collected and stored in list mode, and then analyzed using CELLQuest® (version 1.2.2) software. Procedures are described in detail in (Gurbel, P. […] Serebruany, V. […] Gurbel, P. A. et al., Coron Artery Dis 9: 451-456 (1998) and Serebruany, V. L. et al., Arterioscl Thromb Vasc Biol 19: 153-158 (1999)). The data in table 1 was obtained using the methods described herein, and in particular, in Examples 1 and 2. The levels of various PAMs were assess from samples of human volunteers.

PECAM-1 = system: PECAM-1
From the text: as §1

CPIa-IIa = system: CPIa-IIa
From the text: as §1

GP IIIa = system: GP IIIa
From the text: as §1

GP IIb/IIIa = system: GP IIb/IIIa
From the text: as §1

[1] = healthy volunteers, desmethylsertraline 31.1 ng/ml
[2] = healthy volunteers, desmethylsertraline 64.2 ng/ml
[3] = healthy volunteers, desmethylsertraline 143 ng/ml
[4] = post-angioplasty patient on aspirin, desmethylsertraline 31.1 ng/ml
[5] = post-angioplasty patient on aspirin, desmethylsertraline 64.2 ng/ml
[6] = post-angioplasty patient on aspirin, desmethylsertraline 143 ng/ml

In the case of `N[C@H]1CC[C@@H](c2ccc(Cl)c(Cl)c2)c2ccccc21` [Desmethyl sertraline, N-desmethylsertraline], the “P-selectin (mean) log fluorescence intensity” value (P-selectin; [1]) is reported as 11.8, the “P-selectin (peak) log fluorescence intensity” value (P-selectin; [1]) is reported as 459 and the “P-selectin (mean) log fluorescence intensity” value (P-selectin; [2]) is reported as 10.5. For the same compound, the “P-selectin (peak) log fluorescence intensity” value (P-selectin; [2]) was 494, the “P-selectin (mean) log fluorescence intensity” value (P-selectin; [3]) was 13.5 and the “P-selectin (peak) log fluorescence intensity” value (P-selectin; [3]) was 398. The “P-selectin (mean) log fluorescence intensity” value (P-selectin; [4]) was 15, the “P-selectin (peak) log fluorescence intensity” value (P-selectin; [4]) was 322 and the “P-selectin (mean) log fluorescence intensity” value (P-selectin; [5]) was 11. For the same compound, the “P-selectin (peak) log fluorescence intensity” value (P-selectin; [5]) was 537, the “P-selectin (mean) log fluorescence intensity” value (P-selectin; [6]) was 13.4 and the “P-selectin (peak) log fluorescence intensity” value (P-selectin; [6]) was 378. For the same compound, the “CD9 (mean) log fluorescence intensity” value (CD9; [1]) was 728, the “CD9 (peak) log fluorescence intensity” value (CD9; [1]) was 620 and the “CD9 (peak) log fluorescence intensity” value (CD9; [2]) was 805. For the same compound, the “CD9 (mean) log fluorescence intensity” value (CD9; [3]) was 837, the “CD9 (peak) log fluorescence intensity” value (CD9; [3]) was 770 and the “CD9 (mean) log fluorescence intensity” value (CD9; [4]) was 908. The “CD9 (peak) log fluorescence intensity” value (CD9; [4]) was 1046, the “CD9 (mean) log fluorescence intensity” value (CD9; [5]) was 927 and the “CD9 (peak) log fluorescence intensity” value (CD9; [5]) was 930. The “CD9 (mean) log fluorescence intensity” value (CD9; [6]) was 853, the “CD9 (peak) log fluorescence intensity” value (CD9; [6]) was 850 and the “PECAM-1 (mean) log fluorescence intensity” value (PECAM-1; [1]) was 74. For the same compound, the “PECAM-1 (peak) log fluorescence intensity” value (PECAM-1; [1]) was 60, the “PECAM-1 (mean) log fluorescence intensity” value (PECAM-1; [2]) was 101 and the “PECAM-1 (mean) log fluorescence intensity” value (PECAM-1; [3]) was 81. The “PECAM-1 (peak) log fluorescence intensity” value (PECAM-1; [3]) was 74, the “PECAM-1 (mean) log fluorescence intensity” value (PECAM-1; [4]) was 94 and the “PECAM-1 (peak) log fluorescence intensity” value (PECAM-1; [4]) was 83. For the same compound, the “PECAM-1 (mean) log fluorescence intensity” value (PECAM-1; [6]) was 90, the “PECAM-1 (peak) log fluorescence intensity” value (PECAM-1; [6]) was 84 and the “CPIa-IIa (mean) log fluorescence intensity” value (CPIa-IIa; [1]) was 41. For the same compound, the “CPIa-IIa (peak) log fluorescence intensity” value (CPIa-IIa; [1]) was 42, the “CPIa-IIa (mean) log fluorescence intensity” value (CPIa-IIa; [3]) was 43 and the “CPIa-IIa (peak) log fluorescence intensity” value (CPIa-IIa; [3]) was 40. For the same compound, the “CPIa-IIa (mean) log fluorescence intensity” value (CPIa-IIa; [4]) was 62, the “CPIa-IIa (peak) log fluorescence intensity” value (CPIa-IIa; [4]) was 59 and the “CPIa-IIa (mean) log fluorescence intensity” value (CPIa-IIa; [5]) was 62. The “CPIa-IIa (peak) log fluorescence intensity” value (CPIa-IIa; [5]) was 53, the “CPIa-IIa (mean) log fluorescence intensity” value (CPIa-IIa; [6]) was 40 and the “CPIa-IIa (peak) log fluorescence intensity” value (CPIa-IIa; [6]) was 48. The “GP IIIa (mean) log fluorescence intensity” value (GP IIIa; [1]) was 981, the “GP IIIa (peak) log fluorescence intensity” value (GP IIIa; [1]) was 913 and the “GP IIIa (mean) log fluorescence intensity” value (GP IIIa; [2]) was 1178. For the same compound, the “GP IIIa (mean) log fluorescence intensity” value (GP IIIa; [3]) was 1182, the “GP IIIa (peak) log fluorescence intensity” value (GP IIIa; [3]) was 1046 and the “GP IIIa (mean) log fluorescence intensity” value (GP IIIa; [4]) was 1235. The “GP IIIa (peak) log fluorescence intensity” value (GP IIIa; [4]) was 1298, the “GP IIIa (peak) log fluorescence intensity” value (GP IIIa; [5]) was 1144 and the “GP IIIa (mean) log fluorescence intensity” value (GP IIIa; [6]) was 1259. For the same compound, the “GP IIIa (peak) log fluorescence intensity” value (GP IIIa; [6]) was 1219, the “GP IIb/IIIa (mean) log fluorescence intensity” value (GP IIb/IIIa; [1]) was 580 and the “GP IIb/IIIa (peak) log fluorescence intensity” value (GP IIb/IIIa; [1]) was 457. The “GP IIb/IIIa (mean) log fluorescence intensity” value (GP IIb/IIIa; [2]) was 743, the “GP IIb/IIIa (peak) log fluorescence intensity” value (GP IIb/IIIa; [2]) was 649 and the “GP IIb/IIIa (mean) log fluorescence intensity” value (GP IIb/IIIa; [3]) was 708. The “GP IIb/IIIa (peak) log fluorescence intensity” value (GP IIb/IIIa; [3]) was 509, the “GP IIb/IIIa (mean) log fluorescence intensity” value (GP IIb/IIIa; [4]) was 948 and the “GP IIb/IIIa (peak) log fluorescence intensity” value (GP IIb/IIIa; [4]) was 791. For the same compound, the “GP IIb/IIIa (mean) log fluorescence intensity” value (GP IIb/IIIa; [5]) was 918, the “GP IIb/IIIa (peak) log fluorescence intensity” value (GP IIb/IIIa; [5]) was 777 and the “GP IIb/IIIa (mean) log fluorescence intensity” value (GP IIb/IIIa; [6]) was 836. For the same compound, the “GP IIb/IIIa (peak) log fluorescence intensity” value (GP IIb/IIIa; [6]) was 716.
